Experimental data published in PubChem BioAssay AID248 (DTP/NCI, 2004).
Inconclusive results and toxic doses are left out. Cut-off read from the data, not from the text of the source: active = T/C of 150% or more; inactive = T/C below 125%.

Tested on: L1210 leukemia ip in BDF1 mice, survival T/C
Assay: NCI In Vivo Anticancer Drug Screen. Data for tumor model L1210 Leukemia (intraperitoneal) in B6D2F1 (BDF1) mice
Settings: higher = longer survival
Outline: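 Ratio derived from survival: compound-dosed mice over vehicle-dosed mice, all bearing a transplantable tumor.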

[1] = endpoint: mean survival time, dose: 100.0 mg/kg/injection, schedule: Q01DX001 (ip), vehicle: other
[2] = endpoint: mean survival time, dose: 200.0 mg/kg/injection, schedule: Q01DX001 (ip), vehicle: other
[3] = endpoint: mean survival time, dose: 400.0 mg/kg/injection, schedule: Q01DX001 (ip), vehicle: other
[4] = endpoint: mean survival time, dose: 100.0 mg/kg/injection, schedule: Q01DX009 (ip), vehicle: Klucel (hydroxypropylcellulose) (HPC)
[5] = endpoint: mean survival time, dose: 100.0 mg/kg/injection, schedule: Q04DX003 (ip), vehicle: Klucel (hydroxypropylcellulose) (HPC)
[6] = endpoint: mean survival time, dose: 200.0 mg/kg/injection, schedule: Q01DX009 (ip), vehicle: Klucel (hydroxypropylcellulose) (HPC)
[7] = endpoint: mean survival time, dose: 200.0 mg/kg/injection, schedule: Q04DX003 (ip), vehicle: Klucel (hydroxypropylcellulose) (HPC)
[8] = endpoint: mean survival time, dose: 100.0 mg/kg/injection, schedule: Q04DX003 (ip), vehicle: saline
[9] = endpoint: mean survival time, dose: 200.0 mg/kg/injection, schedule: Q04DX003 (ip), vehicle: saline
[10] = endpoint: mean survival time, dose: 400.0 mg/kg/injection, schedule: Q04DX003 (ip), vehicle: saline
[11] = endpoint: mean survival time, dose: 100.0 mg/kg/injection, schedule: Q04DX002 (ip), vehicle: saline
[12] = endpoint: mean survival time, dose: 200.0 mg/kg/injection, schedule: Q04DX002 (ip), vehicle: saline
[13] = endpoint: mean survival time, dose: 400.0 mg/kg/injection, schedule: Q04DX002 (ip), vehicle: saline
[14] = endpoint: mean survival time, dose: 50.0 mg/kg/injection, schedule: Q01DX001 (ip), vehicle: saline
[15] = endpoint: mean survival time, dose: 100.0 mg/kg/injection, schedule: Q01DX001 (ip), vehicle: saline
[16] = endpoint: mean survival time, dose: 200.0 mg/kg/injection, schedule: Q01DX001 (ip), vehicle: saline
[17] = endpoint: mean survival time, dose: 400.0 mg/kg/injection, schedule: Q01DX001 (ip), vehicle: saline
[18] = endpoint: mean survival time, dose: 100.0 mg/kg/injection, schedule: Q01DX009 (ip), vehicle: saline with Tween-80
[19] = endpoint: mean survival time, dose: 200.0 mg/kg/injection, schedule: Q01DX009 (ip), vehicle: saline with Tween-80
[20] = endpoint: mean survival time, dose: 400.0 mg/kg/injection, schedule: Q01DX009 (ip), vehicle: saline with Tween-80
[21] = endpoint: mean survival time, dose: 400.0 mg/kg/injection, schedule: Q01DX009 (ip), vehicle: Klucel (hydroxypropylcellulose) (HPC)
[22] = endpoint: mean survival time, dose: 100.0 mg/kg/injection, schedule: Q04DX002 (ip), vehicle: saline with Tween-80
[23] = endpoint: mean survival time, dose: 200.0 mg/kg/injection, schedule: Q04DX002 (ip), vehicle: saline with Tween-80
[24] = endpoint: mean survival time, dose: 400.0 mg/kg/injection, schedule: Q04DX002 (ip), vehicle: saline with Tween-80
[25] = endpoint: mean survival time, dose: 100.0 mg/kg/injection, schedule: Q01DX001 (ip), vehicle: Klucel (hydroxypropylcellulose) (HPC)
[26] = endpoint: mean survival time, dose: 200.0 mg/kg/injection, schedule: Q01DX001 (ip), vehicle: Klucel (hydroxypropylcellulose) (HPC)

Measured: T/C

CC(=O)Nc1c(Br)cc2c(c1Br)Cc1cc(N=Cc3ccc4c(c3)OCO4)ccc1-2
inactive: [1] 100 % of control | [2] 94 % of control | [3] 103 % of control

CC(=O)c1ccc(NCC2N=C(N)N=C(N)N2c2ccccc2)cc1 (configuration not stated)
inactive: [4] 97 % of control | [5] 98 % of control | [6] 96 % of control | [7] 90 % of control

Cc1cc(C)c(/C=N/O)c(C)c1
inactive: endpoint: mean survival time, dose: 50.0 mg/kg/injection, schedule: Q01DX009 (ip), vehicle: acetone 93 % of control | endpoint: mean survival time, dose: 100.0 mg/kg/injection, schedule: Q01DX009 (ip), vehicle: acetone 87 % of control | [8] 102 % of control | [9] 97 % of control | [10] 100 % of control

CC1([CH2][Hg][Cl])Cc2ccccc2O1 (configuration not stated)
inactive: endpoint: mean survival time, dose: 6.25 mg/kg/injection, schedule: Q04DX003 (ip), vehicle: saline with Tween-80 96 % of control

COc1cc(OC)c(/C=C2\N=C(c3ccccc3)OC2=O)c(OC)c1
inactive: endpoint: mean survival time, dose: 100.0 mg/kg/injection, schedule: Q04DX002 (ip), vehicle: other 91 % of control | endpoint: mean survival time, dose: 200.0 mg/kg/injection, schedule: Q04DX002 (ip), vehicle: other 102 % of control | endpoint: mean survival time, dose: 400.0 mg/kg/injection, schedule: Q04DX002 (ip), vehicle: other 88 % of control

CC(C)CCC(CCC(C)C)NCC(C)OC(=O)c1ccc(N)cc1 (configuration not stated)
inactive: endpoint: mean survival time, dose: 75.0 mg/kg/injection, schedule: Q01DX001 (ip), vehicle: carboxymethylcellulose (CMC) 93 % of control | endpoint: mean survival time, dose: 150.0 mg/kg/injection, schedule: Q01DX001 (ip), vehicle: carboxymethylcellulose (CMC) 89 % of control

COc1ccc(COC(=O)Oc2ccc(C)cc2)cc1
inactive: [11] 113 % of control | [12] 109 % of control | [13] 98 % of control

Cc1nc(N)[nH]c(=O)c1CCCc1ccccc1
inactive: endpoint: mean survival time, dose: 100.0 mg/kg/injection, schedule: Q01DX009 (ip), vehicle: gum acacia 103 % of control | endpoint: mean survival time, dose: 200.0 mg/kg/injection, schedule: Q01DX009 (ip), vehicle: gum acacia 94 % of control | endpoint: mean survival time, dose: 400.0 mg/kg/injection, schedule: Q01DX009 (ip), vehicle: gum acacia 95 % of control

CCCCc1ccc2nc3cc4ccccc4cc3nc2c1
inactive: [14] 95 % of control | [15] 98 % of control | [16] 93 % of control | [17] 110 % of control

CC#C[P+](Cc1ccccc1)(c1ccccc1)c1ccccc1
inactive: endpoint: mean survival time, dose: 9.5 mg/kg/injection, schedule: Q01DX001 (ip), vehicle: saline 108 % of control | endpoint: mean survival time, dose: 19.0 mg/kg/injection, schedule: Q01DX001 (ip), vehicle: saline 117 % of control

CSc1sc2ccc(S(=O)(=O)O)cc2[n+]1C
inactive: endpoint: mean survival time, dose: 100.0 mg/kg/injection, schedule: Q04DX003 (ip), vehicle: saline with Tween-80 97 % of control | endpoint: mean survival time, dose: 200.0 mg/kg/injection, schedule: Q04DX003 (ip), vehicle: saline with Tween-80 94 % of control

CCNC(=O)NC(=O)CN1CCOCC1
inactive: endpoint: mean survival time, dose: 100.0 mg/kg/injection, schedule: Q04DX003 (ip), vehicle: saline sonified 100 % of control | endpoint: mean survival time, dose: 200.0 mg/kg/injection, schedule: Q04DX003 (ip), vehicle: saline sonified 102 % of control | endpoint: mean survival time, dose: 400.0 mg/kg/injection, schedule: Q04DX003 (ip), vehicle: saline sonified 100 % of control

CC(C)(C)OP(O)(=S)OC(C)(C)C
inactive: [11] 94 % of control | [12] 113 % of control | [13] 110 % of control

CC[Si](CC)(c1ccccc1)N1CC1
inactive: endpoint: mean survival time, dose: 25.0 mg/kg/injection, schedule: Q01DX001 (ip), vehicle: carboxymethylcellulose (CMC) 97 % of control | endpoint: mean survival time, dose: 50.0 mg/kg/injection, schedule: Q01DX001 (ip), vehicle: carboxymethylcellulose (CMC) 101 % of control

CSc1n[nH]c(=O)[nH]c1=O
inactive: [15] 100 % of control | [16] 102 % of control | [17] 94 % of control

COc1cccc(-n2cccc2)c1
inactive: [1] 103 % of control | [2] 105 % of control | [3] 108 % of control

O=C(Cl)c1ccccc1/C=C/c1ccccc1
inactive: [18] 89 % of control | [19] 89 % of control | [20] 93 % of control

CC(=O)CCC(=O)CCC(=O)O
inactive: [11] 92 % of control | [12] 100 % of control | [13] 95 % of control

O=C(O)c1ccccc1Oc1ccccc1C(=O)O
inactive: [8] 102 % of control | [9] 100 % of control | [10] 91 % of control

CCCCCCCCCCCCCCCCCCO
inactive: [18] 99 % of control | [19] 92 % of control | [20] 87 % of control

CCNCC(=O)Nc1ccccc1C(=O)OCC
inactive: endpoint: mean survival time, dose: 222.0 mg/kg/injection, schedule: Q01DX Z (ip), vehicle: saline 113 % of control | endpoint: mean survival time, dose: 333.0 mg/kg/injection, schedule: Q01DX Z (ip), vehicle: saline 102 % of control

CN(C)c1ccc(N=Nc2cccc(Cl)c2)cc1
inactive: [4] 97 % of control | [6] 97 % of control | [21] 90 % of control

c1ccc(-c2ccccn2)nc1
inactive: [22] 107 % of control | [23] 101 % of control | [24] 114 % of control

CCOC(=O)c1ccc2c3c(ccc([N+](=O)[O-])c13)CC2
inactive: [14] 98 % of control | [15] 104 % of control | [16] 101 % of control | [17] 98 % of control

O=[N+]([O-])c1cccc(N(c2ccccc2)c2ccccc2)c1
inactive: endpoint: mean survival time, dose: 100.0 mg/kg/injection, schedule: Q01DX001 (ip), vehicle: carboxymethylcellulose (CMC) 108 % of control | endpoint: mean survival time, dose: 200.0 mg/kg/injection, schedule: Q01DX001 (ip), vehicle: carboxymethylcellulose (CMC) 108 % of control | endpoint: mean survival time, dose: 400.0 mg/kg/injection, schedule: Q01DX001 (ip), vehicle: carboxymethylcellulose (CMC) 100 % of control

CN(C(=O)Cl)c1ccccc1
inactive: endpoint: mean survival time, dose: 12.5 mg/kg/injection, schedule: Q01DX009 (ip), vehicle: Klucel (hydroxypropylcellulose) (HPC) 95 % of control | endpoint: mean survival time, dose: 12.5 mg/kg/injection, schedule: Q04DX003 (ip), vehicle: Klucel (hydroxypropylcellulose) (HPC) 95 % of control | endpoint: mean survival time, dose: 25.0 mg/kg/injection, schedule: Q01DX009 (ip), vehicle: Klucel (hydroxypropylcellulose) (HPC) 95 % of control | endpoint: mean survival time, dose: 25.0 mg/kg/injection, schedule: Q04DX003 (ip), vehicle: Klucel (hydroxypropylcellulose) (HPC) 97 % of control | endpoint: mean survival time, dose: 50.0 mg/kg/injection, schedule: Q01DX009 (ip), vehicle: Klucel (hydroxypropylcellulose) (HPC) 93 % of control | endpoint: mean survival time, dose: 50.0 mg/kg/injection, schedule: Q04DX003 (ip), vehicle: Klucel (hydroxypropylcellulose) (HPC) 93 % of control

CCOC(=O)c1[nH]c(-c2ccccc2)nc1/N=N/N(C)C
inactive: endpoint: median survival time, dose: 25.0 mg/kg/injection, schedule: Q01DX009 (ip), vehicle: Klucel (hydroxypropylcellulose) (HPC) 122 % of control | endpoint: median survival time, dose: 200.0 mg/kg/injection, schedule: Q01DX009 (ip), vehicle: Klucel (hydroxypropylcellulose) (HPC) 111 % of control

CC1(C)OC(=O)C(C#N)C1c1ccc(Cl)cc1 (configuration not stated)
inactive: [15] 101 % of control | [16] 95 % of control | [17] 95 % of control

C[CH2][Sn](=[S])[S][Sn](=[S])[CH2]C
inactive: [22] 102 % of control | [23] 94 % of control | [24] 97 % of control

Cc1ccc(S(=O)(=O)OCCN(CCOS(=O)(=O)c2ccc(C)cc2)S(=O)(=O)c2ccc(C)cc2)cc1
inactive: [4] 94 % of control | [5] 94 % of control | [6] 89 % of control | [7] 91 % of control | [21] 96 % of control | endpoint: mean survival time, dose: 400.0 mg/kg/injection, schedule: Q04DX003 (ip), vehicle: Klucel (hydroxypropylcellulose) (HPC) 91 % of control

c1ccc(C2=NC(c3ccccc3)N3CC23c2ccccc2)cc1 (configuration not stated)
inactive: [25] 97 % of control | [26] 94 % of control

Nc1cc(Nc2ccccc2)nc(=O)[nH]1
inactive: [25] 94 % of control | [26] 97 % of control
